{"source": "patent US9192560B2", "about": "“Stable composition comprising an anti-ageing compound and a solvent” (CHANEL PARFUMS BEAUTE, priority 2012, dated 2015)", "key": {"[1]": {"experiment": "Stability of diacetylresveratryl thioctate in the formulation with odor absorber", "type": "physicochemical", "settings": "0.6% odor absorber in Base (0.10% diacetylresveratryl thioctate), two months", "description": "A diacetylresveratryl thioctate stability test was carried out for the odor absorbers retained in Example 3, according to the following protocol, for the purpose of confirming the compatibility between the solvent and the odor absorber."}, "[2]": {"experiment": "Study of olfactory stability of Base with odor absorber", "description": "A Base composition as follows was prepared. In this composition, octocrylene is used as diacetylresveratryl thioctate-stabilizing solvent.\n0.6% of each candidate odor absorber was added to one of the base compositions above and the olfactory stability was tested at three temperatures (ambient temperature, 5° C. and 45° C.) and at the following times: • at the beginning (to), • 1 month (1M), • 2 months (2M) and • 3 months (3M)."}, "[3]": {"experiment": "Resveratrol stabilization test in solvents (comparative example)", "type": "physicochemical", "description": "The stabilization of resveratrol by dimethyl isosorbide, ethylhexyl methoxycrylene and octocrylene was evaluated according to the same protocol as Example 1-a, except that the solubility was evaluated on the same day as to (0D)."}, "[4]": {"experiment": "Diacetylresveratryl thioctate stabilization test in candidate solvents (solubility at t0 and a day later)", "settings": "for Solubility 1 D/AT / Solubility t0/AT: diacetylresveratryl thioctate in the named solvent, ambient temperature; for Solubility 1 D/AT: a day later; for Solubility t0/AT: initial; for Stability: stabilization of diacetylresveratryl thioctate by the named solvent", "quoted_text": "The term “stabilization” is intended to mean an absence of crystallization of diacetylresveratryl thioctate after 10 days at 4° C. and six months at AT.\nThe candidate solvents thus chosen are then subjected to the stabilization test. This test consists in comparing the initial solubility (t0) and the solubility a day later (1D) at ambient temperature (AT)."}, "[5]": {"settings": "listed as ethylhexyl methoxycrylene"}}, "note": "Like-named read-outs stand apart in the source and are kept apart here.", "data": [{"compound": "O=C1CC[C@@H](C(=O)[O-])N1.O=C1CC[C@@H](C(=O)[O-])N1.[Cu+2]", "note": "[Copper L-pyrrolidone carboxylate salt]", "values": [{"measurement": "degree of diacetylresveratryl thioctate stabilization 5° C.", "setting": "[1]; 5° C.", "value": 0.1}, {"measurement": "degree of diacetylresveratryl thioctate stabilization 45° C.", "setting": "[1]; 45° C.", "value": 0.094}, {"measurement": "olfactory stability 1 M", "setting": "[2]; 0.6% odor absorber in Base, 1 month, identical at AT, 5° C. and 45° C.", "value": "Yes"}, {"measurement": "olfactory stability 2 M 5° C.", "setting": "[2]; 0.6% odor absorber in Base, 2 months, 5° C.", "value": "Yes"}, {"measurement": "olfactory stability 2 M 45° C.", "setting": "[2]; 0.6% odor absorber in Base, 2 months, 45° C.", "value": "Yes"}, {"measurement": "olfactory stability 2 M AT", "setting": "[2]; 0.6% odor absorber in Base, 2 months, ambient temperature", "value": "Yes"}, {"measurement": "olfactory stability 3 M", "setting": "[2]; 0.6% odor absorber in Base, 3 months, identical at AT, 5° C. and 45° C.", "value": "Yes"}, {"measurement": "olfactory stability t0", "setting": "[2]; 0.6% odor absorber in Base, identical at AT, 5° C. and 45° C.", "value": "Yes"}, {"measurement": "olfactory stability, overall conclusion", "setting": "[2]; odor absorber in combination with the Base, up to 3 months", "value": "the most appropriate"}]}, {"compound": "CO[C@H]1CO[C@H]2[C@@H]1OC[C@H]2OC", "note": "[Dimethyl isosorbide]", "values": [{"measurement": "Solubility t0/AT", "setting": "[3]; resveratrol in the named solvent, initial, ambient temperature", "value": "Partially soluble"}, {"measurement": "Solubility 0 D/AT", "setting": "[3]; resveratrol in the named solvent, same day, ambient temperature", "value": "Precipitate"}, {"measurement": "Stability", "setting": "[3]; stabilization of resveratrol by the named solvent", "value": "No"}, {"measurement": "Solubility 1 D/AT", "setting": "[4]", "value": "Clear"}, {"measurement": "Solubility t0/AT", "setting": "[4]", "value": "Partially soluble"}, {"measurement": "Solubility t0/AT", "setting": "[4]; listed as dimethyl isosorbide", "value": "partially soluble"}, {"measurement": "Stability", "setting": "[4]", "value": "Yes"}]}, {"compound": "CCCCC(CC)COC(=O)C(C#N)=C(c1ccccc1)c1ccc(OC)cc1", "note": "(stereo not shown) [Ethylhexyl methoxycrylene]", "values": [{"measurement": "Solubility 0 D/AT", "setting": "[3]", "value": "Precipitate"}, {"measurement": "Solubility t0/AT", "setting": "[3]", "value": "Soluble fraction"}, {"measurement": "Stability", "setting": "[3]", "value": "No"}, {"measurement": "Solubility 1 D/AT", "setting": "[4]", "value": "Clear"}, {"measurement": "Solubility t0/AT", "setting": "[4]", "value": "Partially soluble"}, {"measurement": "Solubility t0/AT", "setting": "[4]; [5]", "value": "partially soluble"}, {"measurement": "Stability", "setting": "[4]", "value": "Yes"}, {"measurement": "Stability", "setting": "[4]; [5]", "value": "particularly satisfactory"}]}, {"compound": "CCCCC(CC)COC(=O)C(C#N)=C(c1ccccc1)c1ccccc1", "note": "(stereo not shown) [Octocrylene]", "values": [{"measurement": "Solubility 0 D/AT", "setting": "[3]", "value": "Precipitate"}, {"measurement": "Solubility t0/AT", "setting": "[3]", "value": "Soluble fraction"}, {"measurement": "Stability", "setting": "[3]", "value": "No"}]}, {"compound": "CCCCCCCCCCC(CO)CCCCCCCC", "note": "(stereo not shown) [Octyldodecanol]", "values": [{"measurement": "Solubility 1 D/AT", "setting": "[4]", "value": "Precipitate"}, {"measurement": "Solubility t0/AT", "setting": "[4]", "value": "Insoluble"}, {"measurement": "stability of diacetylresveratryl thioctate solubilized in a conventional solvent", "setting": "[4]; general observation of the applicant", "value": "recrystallizes"}, {"measurement": "Stability", "setting": "[4]", "value": "No"}]}, {"compound": "O=C(Oc1ccccc1)c1ccccc1", "note": "[Phenyl benzoate]", "values": [{"measurement": "Solubility 1 D/AT", "setting": "[4]", "value": "Clear"}, {"measurement": "Solubility t0/AT", "setting": "[4]", "value": "Partially soluble"}, {"measurement": "Solubility t0/AT", "setting": "[4]; listed as phenyl benzoate", "value": "partially soluble"}, {"measurement": "Stability", "setting": "[4]", "value": "Yes"}]}, {"compound": "CCCCCCCCOC(=O)c1ccc(C(=O)OCCCCCCCC)c(C(=O)OCCCCCCCC)c1", "note": "[Trioctyl trimellitate]", "values": [{"measurement": "Solubility 1 D/AT", "setting": "[4]", "value": "Clear"}, {"measurement": "Solubility t0/AT", "setting": "[4]", "value": "Partially soluble"}, {"measurement": "Solubility t0/AT", "setting": "[4]; listed as trioctyl trimellitate", "value": "partially soluble"}, {"measurement": "Stability", "setting": "[4]", "value": "Yes"}]}, {"compound": "Kaolin", "values": [{"measurement": "olfactory stability t0", "setting": "[2]", "value": "Yes"}]}]}
